IC50 and Emax data for one compound are collected here from patent US20060258644A1, “Pyrrolobenzodiazepines and heteroaryl, aryl and cycloalkylamino ketone derivatives as follicle stimulating hormone receptor (FSH-R) antagonists” (Wyeth, priority 2005, published 2006).

SMILES strings stand for the structures.

For one assay, the target named is T1, human FSH receptor (Homo sapiens, UniProt P23945).
T1 construct: host or cells: CHO-K1 (CHO FSH-R 6CRE-Luc, 1D7 cells)
T1 sequence (P23945 18-695): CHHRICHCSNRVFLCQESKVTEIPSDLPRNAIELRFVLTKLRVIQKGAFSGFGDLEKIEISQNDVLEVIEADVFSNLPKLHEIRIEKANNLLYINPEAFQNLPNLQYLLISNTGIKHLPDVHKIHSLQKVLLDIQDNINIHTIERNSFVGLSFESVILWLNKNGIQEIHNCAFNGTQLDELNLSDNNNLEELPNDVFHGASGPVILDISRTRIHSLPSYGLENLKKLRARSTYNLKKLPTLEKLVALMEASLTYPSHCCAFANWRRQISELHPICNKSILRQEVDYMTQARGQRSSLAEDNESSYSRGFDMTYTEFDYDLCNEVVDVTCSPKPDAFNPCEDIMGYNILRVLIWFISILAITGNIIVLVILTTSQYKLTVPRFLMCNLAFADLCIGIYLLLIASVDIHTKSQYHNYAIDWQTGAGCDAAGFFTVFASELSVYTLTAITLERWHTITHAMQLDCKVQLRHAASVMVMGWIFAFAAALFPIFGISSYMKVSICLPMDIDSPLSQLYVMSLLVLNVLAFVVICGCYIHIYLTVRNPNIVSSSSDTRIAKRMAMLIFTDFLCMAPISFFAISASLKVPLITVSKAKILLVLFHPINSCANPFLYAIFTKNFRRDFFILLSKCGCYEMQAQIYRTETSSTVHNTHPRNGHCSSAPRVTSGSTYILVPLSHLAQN
As to the kind of experiment: FSH receptor-dependent CRE-luciferase reporter gene assay (CHO FSH-R 6CRE-Luc cells). The class given is cell-based. Conditions: dose-response in presence of EC50 of purified human FSH; read-out: CRE IC50. An excerpt: Follicle-Stimulating Hormone Receptor-Dependent CRE-Luciferase Reporter Gene Assay for the Identification of Follicle-Stimulating Hormone (FSH) Antagonists
This procedure was used to identify and determine the relative potencies of human FSH receptor antagonists using a Chinese hamster ovarian cell line that stably produces the human FSH receptor and a luciferase reporter gene regulated by cAMP response elements.
The compounds were subsequently diluted in DMSO to working dilutions of 1 and 20 or 30 mM for 2-dose testing format and 1 μM-10 mM for dose-response format. The DMSO dilutions were diluted 500-fold in sterile growth medium [D-MEM/F-12 (GIBCO/BRL; Grand Island N.Y.) containing 15 mM HEPES, 2 mM 1-glutamine, pyridoxine hydrochloride, phenol red and 5% FetalClone II (HyClone Laboratories, Inc; Logan, Utah), 0.2% DMSO, 100 units penicillin G/ml, and 100 μg streptomycin sulfate/ml (GIBCO/BRL)]. The concentration of the vehicle in each of the compound dilutions was the same. • Positive Controls: Purified human FSH (>98%) was purchased from Cortex Biochem, Inc. (San Leandro, Calif.) and WAY-162002 (an FSH-R thiazolidinone antagonist) was obtained from the Wyeth Research compound repository. Preparation of Cells
The CHO FSH-R 6CRE-Luc cells (1D7 cells) were obtained from Affymax (Palo Alto, Calif.). These Chinese hamster ovary cells (CHO—K1) were genetically engineered to stably express the recombinant human FSH receptor gene and a luciferase reporter gene under the regulation of 6 copies of a cAMP response element. The cells were plated one day prior to treatment into 96-well white opaque plates at a density of 50,000 cells/100 μl/well in growth medium. On the day of treatment, the growth medium was removed from the wells by aspiration and 50 μl of fresh growth medium was added to each well. The cells were incubated at 37° C. in a humidified incubator with 5% CO2/95% air.
The treated cells were incubated for 4 hours at 37° C. in a humidified incubator with 5% CO2/95% air. At the end of-the incubation period, luciferase activity was measured by chemiluminescence using a commercially available kit (LucScreen, Tropix, Inc., Bedford, Mass.) according to the manufacturer's specifications, except that Buffer 1 and Buffer 2 were mixed together in equal proportion prior to the addition of 100 μl of the combined reagents to each well. Chemiluminescence was detected using a luminometer (EG & G Berthold Microlumat LB 96 P, Wallac, Gaithersburg, Md.) with chemiluminescence measured for 1 sec/well. Background luminescence was measured for each well prior to the addition of the LucScreen reagent.
In the 96-well 2-dose format, each compound was tested in duplicate at each dose. […] One plate was used to test a maximum of 22 compounds.
The EC50 of purified human FSH alone was tested in triplicate with each test compound. The doses chosen to test each compound were extrapolated from the initial 2-dose screening process. Along with the test compounds, purified human FSH was also tested in a dose response (0.03, 0.1, 0.3, 1, 3, 10, and 30 ng/ml) for a positive control and quality control. One plate was used for 3 test compounds and the FSH positive control.
Luciferase activity is expressed as relative light units/sec/well. Luciferase activity in antagonist was compared to the appropriate negative and positive controls. For 2-dose testing, results are reported as luciferase activity and are expressed as % inhibition of the response obtained from the EC50 of FSH. For dose-response testing, results are reported as IC50 values. Data were analyzed statistically by one-way analysis of variance with appropriate weighting and transformation and relevant paired test as determined by Biometrics (Wyeth Research, Princeton, N.J.). IC50 values were calculated using the Stat/Excel program developed by Biometrics with appropriate weighting and transformation.
On the technique in general: Reporter assays use an easily measured gene product as a stand-in for the process of interest.

A further assay deals with T2, hFSH-R (Homo sapiens, UniProt P23945).
T2 construct: expressed in transfected cells; host or cells: CHO-3D2 cells
T2 sequence (P23945 18-695): T1 sequence (P23945 18-695)
Kind of assay: cAMP accumulation bio-assay in CHO-3D2 cells (hFSH-R), RIA. The class given is cell-based. The method, then: The compounds were subsequently diluted in sterile assay medium consisting of Opti-MEM® I (Life Technologies) with 0.1% (w/v) BSA (Sigma), prior to use in the bio-assay. The final concentration of DMSO in the assay is 0.1%.
Plated cells are then incubated at 37° C. in a humidified 5% CO2/95% air, atmosphere.
On the day of the assay, cells were washed three times with 100 μl/well of assay medium consisting of Opti-MEM® I (Life Technologies) with 0.1% (w/v) BSA (Sigma). Medium was removed and 100 μl of assay medium was added to each well. Plates were incubated for an additional 30 minutes at 37° C. […] Reactions were terminated by the addition of 50 μl of 0.2N hydrochloric acid to each well and cAMP-accumulation was measured by radioimmunoassay (RIA) using a commercially available kit (Amersham).
All test compounds were evaluated in a dose-response paradigm ranging from 0.01 to 30 μM. Controls and test compounds were evaluated in quadruplicate in a 96-well format.
Data were analyzed by one-way analysis of variance and significant differences between treatments and control determined by Least Significant Difference test.
Test compounds were compared to the effect of purified human FSH.
On the technique in general: Changes in cAMP serve as a functional read-out for many G protein-coupled receptors.

With `COc1ccccc1-c1ccc(C(=O)N2Cc3ccc(C(=O)CCc4cccnc4)n3Cc3ccccc32)cc1` [Example 3, 1-{10-[(2′-Methoxy-1,1′-biphenyl-4-yl)carbonyl]-10,11-dihydro-5H-pyrrolo[2,1-c][1,4]benzodiazepin-3-yl}-3-pyridin-3-ylpropan-1-one], the IC50 (commonly the concentration needed to halve the response being measured) on human FSH receptor was 6.82 µM; against hFSH-R, 2 µM. The Emax at hFSH-R (read-out: cAMP % efficacy) was 78%.
